Assay results as given in ChEMBL document CHEMBL1140776, “Parasiticidal 2-alkoxy- and 2-aryloxyiminoalkyl trifluoromethanesulfonanilides” (2008).

Tests used:
Type in all cases: functional
[1] = system: Ctenocephalides felis; assay: Parasiticidal activity against Ctenocephalides felis by cat flea assay
[2] = system: Rhipicephalus sanguineus; assay: Parasiticidal activity against Rhipicephalus sanguineus assessed per tick by brown dog tick assay
[3] = system: Rhipicephalus sanguineus; assay: Parasiticidal activity against Rhipicephalus sanguineus assessed as mortality after 24 hrs by brown dog tick assay; set-up: concentration or dose not given beside the values
[4] = system: Ctenocephalides felis; assay: Parasiticidal activity against Ctenocephalides felis assessed as mortality after 24 hrs by cat flea assay; set-up: concentration or dose not given beside the values
[5] = system: Haemonchus contortus; assay: Parasiticidal activity against Haemonchus contortus by larval assay

Row | SMILES | LC50 [1] | LD50 [2] | Activity [3] | Activity [4] | LD99 [5]
1 | C/C(=N\OC(C)(C)C)c1cc(Cl)ccc1NS(=O)(=O)C(F)(F)F | 41 ng/cm2 | 1.4 µg | 92% | 100% | 16 µM
2 | C/C(=N\Oc1ccc(Br)cc1)c1cc(Cl)ccc1NS(=O)(=O)C(F)(F)F | – | – | – | 91% | 0.87 µM
3 | C/C(=N\OCc1ccc(Cl)cc1)c1cc(Cl)ccc1NS(=O)(=O)C(F)(F)F | – | – | 72% | 100% | 3 µM
4 | CC/C(=N\Oc1ccc(F)cc1)c1cc(Cl)ccc1NS(=O)(=O)C(F)(F)F | 35 ng/cm2 | 1.5 µg | 92% | 100% | 3.5 µM
5 | CC/C(=N\Oc1ccc(Cl)cc1)c1cc(Cl)ccc1NS(=O)(=O)C(F)(F)F | 51 ng/cm2 | – | 95% | 100% | 1 µM
6 | O=S(=O)(Nc1ccc(Cl)cc1/C(=N/OCC1CCCCC1)c1ccccc1)C(F)(F)F | – | – | 52% | 8% | –
7 | CCO/N=C(\C)c1cc(Br)ccc1NS(=O)(=O)C(F)(F)F | 11 ng/cm2 | 1.2 µg | 100% | 100% | >13 µM
8 | C/C(=N\Oc1ccc(F)cc1)c1cc(Cl)ccc1NS(=O)(=O)C(F)(F)F | 10 ng/cm2 | 1.3 µg | 100% | 100% | 4.6 µM
9 | CC/C(=N\OC(C)C)c1cc(Cl)ccc1NS(=O)(=O)C(F)(F)F | – | – | 100% | 100% | –
10 | C/C(=N\OCC1CC1)c1cc(Cl)ccc1NS(=O)(=O)C(F)(F)F | 5 ng/cm2 | 1 µg | 100% | 100% | –
11 | CC/C(=N\Oc1cccc(C(F)(F)F)c1)c1cc(Cl)ccc1NS(=O)(=O)C(F)(F)F | – | – | – | 71% | 2 µM
12 | CC(C)/C(=N\Oc1ccc(F)cc1)c1cc(Cl)ccc1NS(=O)(=O)C(F)(F)F | – | – | 42% | 100% | –
13 | CC/C(=N\OCC1CCCC1)c1cc(Cl)ccc1NS(=O)(=O)C(F)(F)F | – | – | 90% | 97% | –
14 | C/C(=N\OC(C)C)c1cc(Cl)ccc1NS(=O)(=O)C(F)(F)F | – | – | 95% | 100% | –
15 | C/C(=N\OCC1CCCCC1)c1cc(Cl)ccc1NS(=O)(=O)C(F)(F)F | – | – | 100% | 96% | –
16 | CCO/N=C(\C)c1ccc(F)cc1NS(=O)(=O)C(F)(F)F | – | – | 8% | 100% | >15 µM
17 | C#CCO/N=C(\C)c1cc(Cl)ccc1NS(=O)(=O)C(F)(F)F | 11 ng/cm2 | 0.99 µg | 100% | 100% | –
18 | CC1(C)C(C=C(Cl)Cl)C1C(=O)OCc1cccc(Oc2ccccc2)c1 (stereo not given) | – | 0.14 µg | – | – | –
19 | CC/C(=N\OCc1ccc(Cl)c(Cl)c1)c1cc(Cl)ccc1NS(=O)(=O)C(F)(F)F | – | – | – | 100% | 1.3 µM

Row | SMILES | LC50 [1] | LD50 [2] | Activity [3] | Activity [4] | LD99 [5]
20 | COCCO/N=C(\C)c1cc(Cl)ccc1NS(=O)(=O)C(F)(F)F | 12 ng/cm2 | 0.71 µg | 100% | 100% | –
21 | CC/C(=N\OCc1ccc(Br)cc1)c1cc(Cl)ccc1NS(=O)(=O)C(F)(F)F | – | – | 58% | 78% | 1.8 µM
22 | C/C(=N\OCC(F)(F)F)c1cc(Cl)ccc1NS(=O)(=O)C(F)(F)F | 6 ng/cm2 | 0.94 µg | 82% | 100% | 18 µM
23 | CC/C(=N\OCc1ccc(Cl)cc1)c1ccc(C(F)(F)F)cc1NS(=O)(=O)C(F)(F)F | – | – | 25% | 100% | –
24 | C/C(=N\OC1CCCC1)c1cc(Cl)ccc1NS(=O)(=O)C(F)(F)F | – | – | 100% | 100% | –
25 | CCO/N=C(\C)c1ccccc1NS(=O)(=O)C(F)(F)F | – | – | 90% | 92% | >16 µM
26 | CC/C(=N\Oc1ccc(Cl)c(Cl)c1)c1cc(Cl)ccc1NS(=O)(=O)C(F)(F)F | 6 ng/cm2 | – | – | 99% | 1.9 µM
27 | N#Cc1nn(-c2c(Cl)cc(C(F)(F)F)cc2Cl)c(N)c1[S+]([O-])C(F)(F)F (stereo not given) [FIPRONIL] | 0.1 ng/cm2 | – | – | – | –
28 | CC/C(=N\OCC1CCCCC1)c1ccc(C(F)(F)F)cc1NS(=O)(=O)C(F)(F)F | – | – | 17% | 97% | –
29 | C/C(=N\OC1CCCCC1)c1cc(Cl)ccc1NS(=O)(=O)C(F)(F)F | – | – | 100% | 100% | –
30 | CO/N=C(\C)c1cc(Cl)ccc1NS(=O)(=O)C(F)(F)F | – | – | 93% | 100% | –
31 | CC/C(=N\OCc1cccc(Cl)c1Cl)c1cc(Cl)ccc1NS(=O)(=O)C(F)(F)F | – | – | – | 63% | 0.63 µM
32 | O=S(=O)(Nc1ccc(Cl)cc1/C(=N/Oc1ccc(F)cc1)c1ccccc1)C(F)(F)F | – | – | – | 21% | –
33 | C/C(=N\Oc1cccc(Cl)c1)c1cc(Cl)ccc1NS(=O)(=O)C(F)(F)F | – | – | 47% | 100% | 3.8 µM
34 | O=S(=O)(Nc1ccc(Cl)cc1/C=N/OCc1ccc(Cl)c(Cl)c1)C(F)(F)F | – | – | – | 42% | 1.4 µM
35 | CC/C(=N\Oc1cccc(Cl)c1)c1cc(Cl)ccc1NS(=O)(=O)C(F)(F)F | – | – | – | 100% | 3.6 µM
36 | CC/C(=N\OCc1ccccc1C(F)(F)F)c1cc(Cl)ccc1NS(=O)(=O)C(F)(F)F | 36 ng/cm2 | – | 31% | 96% | 2.7 µM
37 | CC/C(=N\OCC(F)(F)F)c1cc(Cl)ccc1NS(=O)(=O)C(F)(F)F | – | – | 80% | 100% | –
38 | CC/C(=N\OC1CCCCC1)c1cc(Cl)ccc1NS(=O)(=O)C(F)(F)F | – | 5.7 µg | 100% | 100% | –

Row | SMILES | LC50 [1] | LD50 [2] | Activity [3] | Activity [4] | LD99 [5]
39 | C/C(=N\OCc1ccc(Cl)cc1)c1ccc(C(F)(F)F)cc1NS(=O)(=O)C(F)(F)F | – | – | 27% | 100% | –
40 | C/C(=N\Oc1cccc(C(F)(F)F)c1)c1cc(Cl)ccc1NS(=O)(=O)C(F)(F)F | – | – | – | 96% | 0.83 µM
41 | C/C(=N\Oc1ccc(Cl)c(Cl)c1)c1cc(Cl)ccc1NS(=O)(=O)C(F)(F)F | – | – | – | 71% | 1.6 µM
42 | c1ccc([C@H]2CN3CCSC3=N2)cc1 [LEVAMISOLE] | – | – | – | – | 0.71 µM
43 | O=S(=O)(Nc1ccc(Cl)cc1/C(=N/OC1CCCCC1)c1ccccc1)C(F)(F)F | – | – | 45% | 12% | –
44 | CC/C(=N\OCCOC)c1cc(Cl)ccc1NS(=O)(=O)C(F)(F)F | – | – | 95% | 100% | –
45 | C=CCO/N=C(\C)c1cc(Cl)ccc1NS(=O)(=O)C(F)(F)F | – | – | 100% | 100% | –
46 | C/C(=N\Oc1ccc(Cl)cc1)c1cc(Cl)ccc1NS(=O)(=O)C(F)(F)F | – | – | – | 90% | 1 µM
47 | CCC/C(=N\OCc1ccc(Cl)cc1Cl)c1cc(Cl)ccc1NS(=O)(=O)C(F)(F)F | – | – | – | 88% | 3.6 µM
48 | CCC/C(=N\Oc1ccc(F)cc1)c1cc(Cl)ccc1NS(=O)(=O)C(F)(F)F | – | – | – | 36% | –
49 | CC/C(=N\OC(C)(C)C)c1cc(Cl)ccc1NS(=O)(=O)C(F)(F)F | 43 ng/cm2 | 1.5 µg | 90% | 100% | –
50 | CC/C(=N\Oc1ccc(Br)cc1)c1cc(Cl)ccc1NS(=O)(=O)C(F)(F)F | – | – | – | 78% | 3.7 µM
51 | CCO/N=C(\C)c1cc(Cl)ccc1NS(=O)(=O)C(F)(F)F | – | – | 85% | 100% | >15 µM
52 | CCC/C(=N\OC1CCCCC1)c1cc(Cl)ccc1NS(=O)(=O)C(F)(F)F | – | – | – | 43% | –
53 | C/C(=N\OC1CCCCC1)c1ccc(C(F)(F)F)cc1NS(=O)(=O)C(F)(F)F | – | – | – | 4% | –
54 | CC/C(=N\Oc1ccc(Cl)cc1)c1ccc(C(F)(F)F)cc1NS(=O)(=O)C(F)(F)F | – | – | 17% | 100% | –
55 | CCO/N=C(\C)c1cccc(OC)c1NS(=O)(=O)C(F)(F)F | – | – | – | 45% | >15 µM
56 | CCC/C(=N\OCC1CCCCC1)c1cc(Cl)ccc1NS(=O)(=O)C(F)(F)F | – | – | – | 70% | 11 µM
